Legend:
Experiment in all cases: KINOMEscan competition binding
[1] = target: T1, BMX (Homo sapiens, UniProt P51813); settings: read-out: %Inh BMX
T1 sequence (P51813 1-675): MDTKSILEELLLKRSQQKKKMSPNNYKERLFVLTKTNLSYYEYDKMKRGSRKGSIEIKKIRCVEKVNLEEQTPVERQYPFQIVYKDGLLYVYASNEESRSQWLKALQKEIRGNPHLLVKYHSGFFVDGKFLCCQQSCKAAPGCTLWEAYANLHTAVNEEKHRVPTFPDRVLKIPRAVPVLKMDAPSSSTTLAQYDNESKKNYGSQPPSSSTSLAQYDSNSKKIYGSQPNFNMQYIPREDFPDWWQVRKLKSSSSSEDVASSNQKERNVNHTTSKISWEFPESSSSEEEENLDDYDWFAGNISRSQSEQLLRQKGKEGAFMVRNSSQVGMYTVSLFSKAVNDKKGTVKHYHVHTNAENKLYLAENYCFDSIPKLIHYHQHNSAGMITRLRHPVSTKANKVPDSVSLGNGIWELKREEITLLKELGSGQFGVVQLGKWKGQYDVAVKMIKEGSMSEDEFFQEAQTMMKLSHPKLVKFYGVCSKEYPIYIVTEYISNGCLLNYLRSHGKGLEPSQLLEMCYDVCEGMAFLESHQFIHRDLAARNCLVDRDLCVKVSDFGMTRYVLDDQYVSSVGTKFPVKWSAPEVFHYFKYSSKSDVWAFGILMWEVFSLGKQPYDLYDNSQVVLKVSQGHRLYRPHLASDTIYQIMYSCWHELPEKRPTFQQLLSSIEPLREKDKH

[2] = target: T2, DCAMKL3 (Homo sapiens, UniProt Q9C098); settings: read-out: %Inh DCAMKL3
T2 sequence (Q9C098 1-648): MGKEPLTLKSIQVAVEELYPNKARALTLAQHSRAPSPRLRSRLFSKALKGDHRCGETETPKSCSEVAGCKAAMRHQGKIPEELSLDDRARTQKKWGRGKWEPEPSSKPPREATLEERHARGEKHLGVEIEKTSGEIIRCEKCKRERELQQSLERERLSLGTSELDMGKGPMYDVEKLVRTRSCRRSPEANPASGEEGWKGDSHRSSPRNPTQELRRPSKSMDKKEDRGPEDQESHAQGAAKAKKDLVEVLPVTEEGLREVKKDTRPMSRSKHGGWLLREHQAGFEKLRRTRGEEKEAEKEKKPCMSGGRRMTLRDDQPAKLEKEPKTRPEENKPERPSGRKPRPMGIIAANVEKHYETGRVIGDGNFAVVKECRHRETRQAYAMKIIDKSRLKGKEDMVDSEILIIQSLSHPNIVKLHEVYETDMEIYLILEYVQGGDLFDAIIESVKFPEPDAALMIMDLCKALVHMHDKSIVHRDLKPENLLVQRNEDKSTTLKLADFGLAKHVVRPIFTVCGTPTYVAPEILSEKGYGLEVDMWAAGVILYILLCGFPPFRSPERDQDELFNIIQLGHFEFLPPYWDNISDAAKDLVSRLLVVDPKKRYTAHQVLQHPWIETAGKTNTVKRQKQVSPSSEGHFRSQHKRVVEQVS

[3] = target: T3, ERK8 (Homo sapiens, UniProt Q8TD08); settings: read-out: %Inh ERK8
T3 sequence (Q8TD08 1-544): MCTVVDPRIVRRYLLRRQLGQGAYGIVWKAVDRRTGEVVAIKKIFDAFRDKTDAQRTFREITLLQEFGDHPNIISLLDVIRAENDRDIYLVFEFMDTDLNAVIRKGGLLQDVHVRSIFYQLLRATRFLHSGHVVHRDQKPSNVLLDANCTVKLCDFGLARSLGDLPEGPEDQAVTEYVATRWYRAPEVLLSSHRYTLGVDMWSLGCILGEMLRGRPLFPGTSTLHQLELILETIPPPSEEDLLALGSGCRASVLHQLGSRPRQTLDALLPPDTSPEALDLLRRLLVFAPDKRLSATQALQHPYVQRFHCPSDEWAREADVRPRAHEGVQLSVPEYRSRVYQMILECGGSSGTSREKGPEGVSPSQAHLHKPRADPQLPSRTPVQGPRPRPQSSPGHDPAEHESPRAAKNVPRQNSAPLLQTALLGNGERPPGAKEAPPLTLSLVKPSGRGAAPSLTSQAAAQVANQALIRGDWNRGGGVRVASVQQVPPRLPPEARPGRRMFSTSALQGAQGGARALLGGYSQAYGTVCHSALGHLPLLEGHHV

[4] = target: AKT3 (Homo sapiens, UniProt Q9Y243); settings: read-out: %Inh AKT3
[5] = target: T4, GCN2(Kin.Dom.2,S808G) (Homo sapiens, UniProt Q9P2K8, S808G); settings: read-out: %Inh GCN2(Kin.Dom.2,S808G)
T4 sequence (Q9P2K8 590-1001 S808G limits assumed): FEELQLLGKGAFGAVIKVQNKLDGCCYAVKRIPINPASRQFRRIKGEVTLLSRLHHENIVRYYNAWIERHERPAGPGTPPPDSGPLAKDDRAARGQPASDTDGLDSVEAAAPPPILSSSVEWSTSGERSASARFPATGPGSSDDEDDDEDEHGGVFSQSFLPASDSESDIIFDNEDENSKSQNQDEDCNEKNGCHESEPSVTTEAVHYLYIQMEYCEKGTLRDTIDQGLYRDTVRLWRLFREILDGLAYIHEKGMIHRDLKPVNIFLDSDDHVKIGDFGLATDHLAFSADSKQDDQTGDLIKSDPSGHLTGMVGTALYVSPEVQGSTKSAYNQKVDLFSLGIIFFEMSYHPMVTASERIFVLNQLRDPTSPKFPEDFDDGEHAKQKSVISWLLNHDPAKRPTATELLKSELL

[6] = target: DYRK1A (Homo sapiens, UniProt Q13627); settings: read-out: %Inh DYRK1A

Sequence of AKT3 (Q9Y243 whole entry): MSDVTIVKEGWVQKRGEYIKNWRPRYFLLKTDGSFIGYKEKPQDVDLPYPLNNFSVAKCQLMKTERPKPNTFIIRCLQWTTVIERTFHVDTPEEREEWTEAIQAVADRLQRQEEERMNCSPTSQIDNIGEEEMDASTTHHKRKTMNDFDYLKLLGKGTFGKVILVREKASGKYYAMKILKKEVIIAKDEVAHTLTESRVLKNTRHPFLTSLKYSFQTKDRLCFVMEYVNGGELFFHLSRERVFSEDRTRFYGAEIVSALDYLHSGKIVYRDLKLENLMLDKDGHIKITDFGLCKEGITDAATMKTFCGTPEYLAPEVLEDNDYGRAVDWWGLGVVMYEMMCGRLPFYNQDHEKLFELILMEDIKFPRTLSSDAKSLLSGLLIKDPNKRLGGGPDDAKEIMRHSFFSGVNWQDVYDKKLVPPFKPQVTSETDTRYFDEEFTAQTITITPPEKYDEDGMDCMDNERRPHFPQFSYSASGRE

Row | Structure (SMILES) | inhibition at 1 µM [1] [%] | inhibition at 1 µM [2] [%] | inhibition at 1 µM [3] [%] | inhibition at 1 µM [4] [%] | inhibition at 1 µM [5] [%] | inhibition at 1 µM [6] [%]
1 | Cn1cc(-c2cnc(N)c3c(-c4ccc5c(c4)CCN5C(=O)Cc4ccccc4)csc23)cn1 [UNC10225012A] | 57 | 5 | 11 | 8 | 91.2 | 0
2 | CS(=O)(=O)Cc1ccc(Nc2nccc(-c3c(-c4cccc(NC(=O)C5CCCCC5)c4)nn4ncccc34)n2)cc1 [UNC10225159A] | 37 | 0 | 0 | 0 | 0 | 26
3 | Cc1ccc(NC(=O)Nc2cccc(C(F)(F)F)c2)cc1 [UNC10225187A] | 0 | 13 | 0 | 0 | 0 | 0
4 | COc1cccc(OC)c1C(=O)Nc1cccc(-c2nn3ccccc3c2-c2ccnc(Nc3cccc(F)c3)n2)c1 [UNC10225310A] | 21 | 16 | 3 | 0 | 0 | 0
5 | O=c1cc(N2CCOCC2)nc2n(Cc3cccc(Cl)c3Cl)c(C3CC3)nn12 [UNC10225469A] | 19 | 17 | 13 | 0 | 0 | 2

From article PMC5540273, “Progress towards a public chemogenomic set for protein kinases and a call for contributions” (PLoS ONE, 2017)
